Where a name gives a salt, the structure may show the parent alone.
Target: Protein Kinase C beta 2 (PKCβII) (Homo sapiens (Human), UniProt P05771)
Test: PKCβII coupled spectrophotometric kinase assay (PK/LDH, NADH absorbance at 340 nm)
Type: biochemical
Conditions: apparent Ki, ATP competitive inhibition model (Morrison equation); 0.1 mM ATP, 5 nM PKC, 30° C.; read-out: Ki app
Method: Protein Kinase C beta 2 (PKCβII) catalyzes the production of ADP from ATP that accompanies the phosphoryl transfer to the PKC Pseudosubstrate peptide (A→S, RFARKGSLRQKNV). This transfer is coupled to the oxidation of β-NADH through the activities of Pyruvate Kinase (PK) and Lactate Dehydrogenase (LDH). β-NADH conversion to NAD+ is monitored by the decrease in absorbance at 340 nm (e=6.22 cm^−1 mM^−1) using a Molecular Devices SPECTRA max PLUS spectrophotometer.
A typical assay was carried out on a 96-well, clear microtiter plate in a Molecular Devices spectrophotometer for 20 minutes at 30° C. in 0.1 mL of assay buffer containing 50 mM HEPES, pH 7.4, 5 nM PKC, 23 units of pyruvate kinase, 33 units of lactate dehydrogenase, 0.15 mM peptide, 0.1 mM ATP, 1 mM DTT, 4 mM PEP, 8 mM MgCl2, 0.3 mM NADH, 60 mM CaCl2, 10 mg/mL PS, 50 ng/mL PMA, 7.5% DMSO and from about 10,000 nM to 0.169 nM compound inhibitor. Stock solutions of 3-sn-phosphatidyl-L-serine (PS) and phorbol-12-myristate-13-acetate (PMA) were sonicated for 30 seconds just prior to addition to assay buffer and assays were initiated by the addition of 100 μM ATP.
Steady-state kinetic parameters for the bi-bi kinase reaction were determined at saturating phospho-acceptor peptide substrate concentration (0.15 mM) by fitting initial velocity data to the Michaelis-Menten equation, v=Vmax[S]/(KM+[S]) where v is the measured initial velocity, Vmax is the maximal enzyme velocity, [S] is the ATP substrate concentration, and KM is the Michealis constant for ATP. Enzyme turnover values (kcat) were calculated according to […], where [E] is the total enzyme concentration. Enzyme inhibition constants (apparent Ki values) were determined by fitting initial velocities at variable inhibitor concentrations to a model for ATP competitive inhibition based on the Morrison equation). Morrison, J. F., Biochim. Biophys Acta 185: 269-286 (1969).

Chain of Protein Kinase C beta 2 (PKCβII) (P05771 other isoform, or with tags, fused parts or gaps): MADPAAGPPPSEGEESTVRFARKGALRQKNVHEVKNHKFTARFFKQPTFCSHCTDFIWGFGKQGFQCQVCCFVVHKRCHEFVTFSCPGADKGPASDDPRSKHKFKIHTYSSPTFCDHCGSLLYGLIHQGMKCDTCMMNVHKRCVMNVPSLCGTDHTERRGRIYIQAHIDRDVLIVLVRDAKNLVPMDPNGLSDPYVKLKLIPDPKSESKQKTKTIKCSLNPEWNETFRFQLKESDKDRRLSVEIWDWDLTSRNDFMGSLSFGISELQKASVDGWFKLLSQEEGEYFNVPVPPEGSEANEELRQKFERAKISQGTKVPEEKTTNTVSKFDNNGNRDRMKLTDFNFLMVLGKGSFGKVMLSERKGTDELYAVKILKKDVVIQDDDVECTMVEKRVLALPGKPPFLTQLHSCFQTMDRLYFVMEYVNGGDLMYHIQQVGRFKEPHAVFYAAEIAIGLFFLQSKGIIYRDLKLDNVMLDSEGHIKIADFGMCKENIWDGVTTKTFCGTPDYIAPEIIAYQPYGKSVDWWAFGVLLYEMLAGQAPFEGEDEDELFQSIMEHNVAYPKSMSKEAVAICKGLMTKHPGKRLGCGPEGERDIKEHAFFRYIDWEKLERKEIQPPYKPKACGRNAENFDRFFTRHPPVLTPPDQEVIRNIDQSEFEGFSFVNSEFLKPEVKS

SMILES | Ki [nM]
CCNc1ncc(F)c(Nc2n[nH]c3c2CN(C(=O)N2C[C@@H](C)N(CCC(F)(F)F)C[C@@H]2C)C3(C)C)n1 [Example B5, N4-(5-{[(2S,5R)-2,5-dimethyl-4-(3,3,3-trifluoropropyl)piperazin-1-yl]carbonyl}-6,6-dimethyl-1,4,5,6-tetrahydropyrrolo[3,4-c]pyrazol-3-yl)-N2-ethyl-5-fluoropyrimidine-2,4-diamine] | 29.8
C[C@@H]1CN(C(=O)N2Cc3c(Nc4ccnc(C#N)n4)n[nH]c3C2(C)C)[C@@H](C)CN1C [Example B6, 4-[(6,6-dimethyl-5-{[(2S,5R)-2,4,5-trimethylpiperazin-1-yl]carbonyl}-1,4,5,6-tetrahydropyrrolo[3,4-c]pyrazol-3-yl)amino]pyrimidine-2-carbonitrile] | 2.43
C[C@@H]1CN(C(=O)N2Cc3c(Nc4nc(N5CCOCC5)ncc4F)n[nH]c3C2(C)C)[C@@H](C)CN1C [Example B7, N-(5-fluoro-2-morpholin-4-ylpyrimidin-4-yl)-6,6-dimethyl-5-{[(2S,5R)-2,4,5-trimethylpiperazin-1-yl]carbonyl}-1,4,5,6-tetrahydropyrrolo[3,4-c]pyrazol-3-amine] | 20.1
CCNc1ncc(F)c(Nc2n[nH]c3c2CN(C(=O)C2(F)CCN(C)CC2)C3(C)C)n1 [Example C1, N^2-ethyl-5-fluoro-N^4-{5-[(4-fluoro-1-methylpiperidin-4-yl)carbonyl]-6,6-dimethyl-1,4,5,6-tetrahydropyrrolo[3,4-c]pyrazol-3-yl}pyrimidine-2,4-diamine] | 33.4
CCc1ncc(F)c(Nc2n[nH]c3c2CN(C(=O)N2CC(C)(C)N(C)C[C@@H]2C)C3(C)C)n1 [Example D1, N-(2-ethyl-5-fluoropyrimidin-4-yl)-6,6-dimethyl-5-{[(2S)-2,4,5,5-tetramethylpiperazin-1-yl]carbonyl}-1,4,5,6-tetrahydropyrrolo[3,4-c]pyrazol-3-amine] | 5.43
CCc1ncc(F)c(Nc2n[nH]c3c2CN(C(=O)N2C[C@@H](C)N(C)C[C@@H]2C)C3(C)C)n1 [Example E1, N-(2-ethyl-5-fluoropyrimidin-4-yl)-6,6-dimethyl-5-{[(2S,5R)-2,4,5-trimethylpiperazin-1-yl]carbonyl}-1,4,5,6-tetrahydropyrrolo[3,4-c]pyrazol-3-amine acetate salt] | 10.5
CCc1ncc(F)c(Nc2n[nH]c3c2CN(C(=O)N2C[C@@H](C)N(CCCOC)C[C@@H]2C)C3(C)C)n1 [Example E2, N-(2-ethyl-5-fluoropyrimidin-4-yl)-5-{[(2S,5R)-4-(3-methoxypropyl)-2,5-dimethylpiperazin-1-yl]carbonyl}-6,6-dimethyl-1,4,5,6-tetrahydropyrrolo[3,4-c]pyrazol-3-amine] | 1.64
CCOc1nccc(Nc2n[nH]c3c2CN(C(=O)N2C[C@@H](C)N(C)C[C@@H]2C)C3(C)C)n1 [Example E3, N-(2-ethoxypyrimidin-4-yl)-6,6-dimethyl-5-{[(2S,5R)-2,4,5-trimethylpiperazin-1-yl]carbonyl}-1,4,5,6-tetrahydropyrrolo[3,4-c]pyrazol-3-amine] | 13.1
CCc1ncc(F)c(Nc2n[nH]c3c2CN(C(=O)N2C[C@@H](C)N(CCC(F)(F)F)C[C@@H]2C)C3(C)C)n1 [Example E4, 5-{[(2S,5R)-2,5-dimethyl-4-(3,3,3-trifluoropropyl)piperazin-1-yl]carbonyl}-N-(2-ethyl-5-fluoropyrimidin-4-yl)-6,6-dimethyl-1,4,5,6-tetrahydropyrrolo[3,4-c]pyrazol-3-amine] | 31.5
CCc1ncc(F)c(Nc2n[nH]c3c2CN(C(=O)N2CC(CCO)N(C)C[C@@H]2C)C3(C)C)n1 (stereo partly drawn) [Example E5, 2-((5S)-4-{[3-[(2-ethyl-5-fluoropyrimidin-4-yl)amino]-6,6-dimethyl-4,6-dihydropyrrolo[3,4-c]pyrazol-5(1H)-yl]carbonyl}-1,5-dimethylpiperazin-2-yl)ethanol] | < 10

Next, values leading:

Ki [nM] | SMILES
39.9 | Cc1ncc(F)c(Nc2n[nH]c3c2CN(C(=O)C2(F)CCN(C)CC2)C3(C)C)n1 [Example F1, 5-[(4-fluoro-1-methylpiperidin-4-yl)carbonyl]-N-(5-fluoro-2-methylpyrimidin-4-yl)-6,6-dimethyl-1,4,5,6-tetrahydropyrrolo[3,4-c]pyrazol-3-amine]
25.4 | CCc1ncc(F)c(Nc2n[nH]c3c2CN(C(=O)C2(F)CCN(C)CC2)C3(C)C)n1 [Example G1, N-(2-ethyl-5-fluoropyrimidin-4-yl)-5-[(4-fluoro-1-methylpiperidin-4-yl)carbonyl]-6,6-dimethyl-1,4,5,6-tetrahydropyrrolo[3,4-c]pyrazol-3-amine]
39.8 | Cc1ncc(F)c(Nc2n[nH]c3c2CN(C(=O)N2C[C@@H]4CCCN4C[C@@H]2C)C3(C)C)n1 [Example H1, N-(5-fluoro-2-methylpyrimidin-4-yl)-6,6-dimethyl-5-{[(3S,8aS)-3-methylhexahydropyrrolo[1,2-a]pyrazin-2(1H)-yl]carbonyl}-1,4,5,6-tetrahydropyrrolo[3,4-c]pyrazol-3-amine]
18.1 | Cc1ncc(F)c(Nc2n[nH]c3c2CN(C(=O)N2C[C@@H](C)N(C)C[C@@H]2C)C3(C)C)n1 [Example H2, N-(5-fluoro-2-methylpyrimidin-4-yl)-6,6-dimethyl-5-{[(2S,5R)-2,4,5-trimethylpiperazin-1-yl]carbonyl}-1,4,5,6-tetrahydropyrrolo[3,4-c]pyrazol-3-amine]
7.21 | Cc1ncc(F)c(Nc2n[nH]c3c2CN(C(=O)N2CC(C)(C)N(C)C[C@@H]2C)C3(C)C)n1 [Example H3, N-(5-fluoro-2-methylpyrimidin-4-yl)-6,6-dimethyl-5-{[(2S)-2,4,5,5-tetramethylpiperazin-1-yl]carbonyl}-1,4,5,6-tetrahydropyrrolo[3,4-c]pyrazol-3-amine]
86 | CC[C@H]1CN(C(=O)N2Cc3c(Nc4nc(C)ncc4F)n[nH]c3C2(C)C)CCN1C [Example H4, 5-{[(3S)-3-ethyl-4-methylpiperazin-1-yl]carbonyl}-N-(5-fluoro-2-methylpyrimidin-4-yl)-6,6-dimethyl-1,4,5,6-tetrahydropyrrolo[3,4-c]pyrazol-3-amine]
50.8 | CC[C@@H]1CN(C(=O)N2Cc3c(Nc4nc(C)ncc4F)n[nH]c3C2(C)C)CCN1C [Example H5, 5-{[(3R)-3-ethyl-4-methylpiperazin-1-yl]carbonyl}-N-(5-fluoro-2-methylpyrimidin-4-yl)-6,6-dimethyl-1,4,5,6-tetrahydropyrrolo[3,4-c]pyrazol-3-amine]
14.9 | Cc1ncc(F)c(Nc2n[nH]c3c2CN(C(=O)N2C[C@@H](C)N(CC4CCOCC4)C[C@@H]2C)C3(C)C)n1 [Example H6, 5-{[(2S,5R)-2,5-dimethyl-4-(tetrahydro-2H-pyran-4-ylmethyl)piperazin-1-yl]carbonyl}-N-(5-fluoro-2-methylpyrimidin-4-yl)-6,6-dimethyl-1,4,5,6-tetrahydropyrrolo[3,4-c]pyrazol-3-amine]
22 | Cc1ncc(F)c(Nc2n[nH]c3c2CN(C(=O)N2C[C@@H](C)N(C4CCOCC4)C[C@@H]2C)C3(C)C)n1 [Example H7, 5-{[(2S,5R)-2,5-dimethyl-4-(tetrahydro-2H-pyran-4-yl)piperazin-1-yl]carbonyl}-N-(5-fluoro-2-methylpyrimidin-4-yl)-6,6-dimethyl-1,4,5,6-tetrahydropyrrolo[3,4-c]pyrazol-3-amine]
157 | Cc1ncc(F)c(Nc2n[nH]c3c2CN(C(=O)N2C[C@@H](C)N(CC4(O)CCOCC4)C[C@@H]2C)C3(C)C)n1 [Example H8, 4-[((2R,5S)-4-{[3-[(5-fluoro-2-methylpyrimidin-4-yl)amino]-6,6-dimethyl-4,6-dihydropyrrolo[3,4-c]pyrazol-5(1H)-yl]carbonyl}-2,5-dimethylpiperazin-1-yl)methyl]tetrahydro-2H-pyran-4-ol]
1.73 | CCCc1ncc(F)c(Nc2n[nH]c3c2CN(C(=O)N2CC(C)(C)N(C)C[C@@H]2C)C3(C)C)n1 [Example I1, N-(5-fluoro-2-propylpyrimidin-4-yl)-6,6-dimethyl-5-{[(2S)-2,4,5,5-tetramethylpiperazin-1-yl]carbonyl}-1,4,5,6-tetrahydropyrrolo[3,4-c]pyrazol-3-amine]
3.67 | CC(C)c1ncc(F)c(Nc2n[nH]c3c2CN(C(=O)N2CC(C)(C)N(C)C[C@@H]2C)C3(C)C)n1 [Example I2, N-(5-fluoro-2-isopropylpyrimidin-4-yl)-6,6-dimethyl-5-{[(2S)-2,4,5,5-tetramethylpiperazin-1-yl]carbonyl}-1,4,5,6-tetrahydropyrrolo[3,4-c]pyrazol-3-amine]
21.2 | Cc1ccc(F)c(Nc2n[nH]c3c2CN(C(=O)C2(F)CCN(C)CC2)C3(C)C)n1 [Example J1, 5-[(4-fluoro-1-methylpiperidin-4-yl)carbonyl]-N-(3-fluoro-6-methylpyridin-2-yl)-6,6-dimethyl-1,4,5,6-tetrahydropyrrolo[3,4-c]pyrazol-3-amine]
